Measured values taken from ChEMBL document CHEMBL1201862, “PubChem BioAssay data set” (2004).
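Following 48 hours of exposure in 96-well plates, responses at five concentrations were used to interpolate endpoints linearly. At the GI50, growth is halved.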 The source made the active and inactive calls. No stated cut-off is given here; in the data, active = GI50 up to about 1.1 µM and inactive = higher.

Key:
Experiment in all cases: inhibition of tumour cell growth, NCI panel, 48 h
NCI-H23 = system: NCI-H23
HOP-92 = system: HOP-92
MDA-MB-231 = system: MDA-MB-231
SK-MEL-5 = system: SK-MEL-5
LOX IMVI = system: LOX IMVI
SN12C = system: SN12C
HT-29 = system: HT-29
HCT-116 = system: HCT-116
SF-539 = system: SF-539
NCI-H522 = system: NCI-H522
T47D = system: T47D
UO-31 = system: UO-31
HCC 2998 = system: HCC 2998
NCI-H226 = system: NCI-H226
BT-549 = system: BT-549
HCT-15 = system: HCT-15
NCI-H460 = system: NCI-H460
A549 = system: A549
K562 = system: K562
XF498 = system: XF498

Measured: GI50

Nc1c2c(nc3ccccc13)CCCc1ccccc1-2
13.8 µM: HCT-15
inactive: NCI-H23 16.3 µM | HOP-92 10.1 µM | MDA-MB-231 5.38 µM | SK-MEL-5 8.45 µM | LOX IMVI 8.69 µM | SN12C 12.8 µM | HT-29 4.53 µM | HCT-116 4.78 µM | SF-539 8.83 µM | NCI-H522 17.3 µM | T47D 11 µM | UO-31 10.5 µM | HCC 2998 1.83 µM | NCI-H226 15.9 µM | BT-549 28.8 µM | NCI-H460 2.81 µM | A549 16.3 µM | K562 5.7 µM

O=C1C=CC(=O)C(CNc2ccc(C(=O)OCc3ccccc3)cc2)=C1
inactive: NCI-H23 10.2 µM | HOP-92 1.76 µM | MDA-MB-231 7.82 µM | SK-MEL-5 3.19 µM | LOX IMVI 4.14 µM | SN12C 6.18 µM | HT-29 15.2 µM | HCT-116 5.3 µM | SF-539 2.72 µM | NCI-H522 1.39 µM | T47D 1.77 µM | UO-31 2.29 µM | HCC 2998 16 µM | NCI-H226 12.3 µM | BT-549 2.56 µM | NCI-H460 16.9 µM | A549 14.5 µM | K562 2.62 µM
2.59 µM: HCT-15

C#C[C@]1(O)CC[C@H]2[C@@H]3CCC4=C/C(=N/OC(=O)c5cccc6c(=O)c7ccccc7[nH]c56)CC[C@@H]4[C@H]3CC[C@@]21C
inactive: NCI-H23 40.6 µM | HOP-92 > 100 µM | MDA-MB-231 51.8 µM | SK-MEL-5 20.2 µM | LOX IMVI 34 µM | SN12C > 100 µM | HT-29 52.5 µM | HCT-116 48.5 µM | SF-539 29.5 µM | NCI-H522 18.2 µM | T47D 29 µM | UO-31 53.5 µM | HCC 2998 50.5 µM | NCI-H226 83.6 µM | BT-549 37.2 µM | NCI-H460 37.2 µM | A549 64.3 µM | K562 17.3 µM
36.5 µM: HCT-15

CS[C@]12C(=O)C[C@@]3(C)[C@@H](CC[C@]3(O)C(=O)CO)[C@@H]1CCC1=CC(=O)CC[C@@]12C
inactive: NCI-H23 > 100 µM | HOP-92 > 100 µM | MDA-MB-231 > 100 µM | SK-MEL-5 > 100 µM | LOX IMVI > 100 µM | SN12C > 100 µM | HT-29 88.5 µM | HCT-116 > 100 µM | SF-539 > 100 µM | NCI-H522 47.9 µM | T47D > 100 µM | UO-31 95.5 µM | HCC 2998 26.9 µM | NCI-H226 > 100 µM | BT-549 68.2 µM | NCI-H460 > 100 µM | A549 > 100 µM | K562 37.1 µM
60.7 µM: HCT-15

CC1=C(C)C(=O)C(C2=C(C3=CC(=O)C(C)=C(C)C3=O)C(=O)c3ccccc3C2=O)=CC1=O
2.12 µM: HCT-15
inactive: NCI-H23 2.79 µM | HOP-92 2.55 µM | MDA-MB-231 2.37 µM | SK-MEL-5 4.53 µM | LOX IMVI 2.41 µM | SN12C 1.85 µM | HT-29 2.2 µM | HCT-116 2.14 µM | SF-539 2.36 µM | NCI-H522 1.88 µM | T47D 2.96 µM | UO-31 1.93 µM | HCC 2998 4.66 µM | NCI-H226 6.14 µM | BT-549 2.57 µM | NCI-H460 14.2 µM | A549 5.21 µM | K562 2.77 µM

C=CCNC(=S)N/N=C1\C(=O)N(CN2CCOCC2)c2ccc([N+](=O)[O-])cc21
inactive: NCI-H23 44.9 µM | HOP-92 13.3 µM | MDA-MB-231 39.8 µM | SK-MEL-5 9.73 µM | LOX IMVI 32.3 µM | SN12C 16.4 µM | HT-29 23.2 µM | HCT-116 6.46 µM | SF-539 51.6 µM | NCI-H522 41.4 µM | T47D 17 µM | UO-31 6.18 µM | HCC 2998 12.9 µM | NCI-H226 > 100 µM | BT-549 15.1 µM | NCI-H460 4.16 µM | A549 10.4 µM | K562 18.9 µM
5.04 µM: HCT-15

NN
296 µM: HCT-15
inactive: NCI-H23 359 µM | HOP-92 525 µM | MDA-MB-231 423 µM | SK-MEL-5 594 µM | LOX IMVI 86.3 µM | SN12C 403 µM | HT-29 234 µM | HCT-116 192 µM | SF-539 582 µM | NCI-H522 335 µM | T47D 618 µM | UO-31 434 µM | HCC 2998 1040 µM | NCI-H226 481 µM | BT-549 1080 µM | NCI-H460 188 µM | A549 145 µM | K562 88.7 µM

COc1cc(/C=C2\C[C@H]3[C@@H]4CC=C5C[C@@H](O)CC[C@]5(C)[C@H]4CC[C@]3(C)C2=O)cc(OC)c1OC
22.1 µM: HCT-15
inactive: NCI-H23 35.3 µM | HOP-92 30.3 µM | MDA-MB-231 26.4 µM | SK-MEL-5 12.5 µM | LOX IMVI 22 µM | SN12C 26.1 µM | HT-29 19.9 µM | HCT-116 20.1 µM | SF-539 49 µM | NCI-H522 16.9 µM | T47D 12.6 µM | UO-31 17.5 µM | HCC 2998 27.6 µM | NCI-H226 31.4 µM | BT-549 33.4 µM | NCI-H460 27.4 µM | A549 13.2 µM | K562 12.2 µM

COc1cc(C(=O)Nc2c3ccccc3nc3ccccc23)cc(OC)c1OC
inactive: NCI-H23 > 100 µM | HOP-92 50.1 µM | MDA-MB-231 > 91.8 µM | SK-MEL-5 > 100 µM | LOX IMVI > 100 µM | SN12C > 100 µM | HT-29 > 100 µM | HCT-116 > 67.1 µM | SF-539 > 100 µM | NCI-H522 42 µM | T47D > 100 µM | UO-31 40.3 µM | HCC 2998 > 100 µM | NCI-H226 > 100 µM | BT-549 > 100 µM | NCI-H460 > 70.8 µM | A549 > 100 µM | K562 > 54.3 µM
> 100 µM: HCT-15

N#Cc1cccc(/C=N/N/C(N)=N/O)c1
inactive: NCI-H23 97.9 µM | HOP-92 39.4 µM | LOX IMVI 21.2 µM | SN12C 99.8 µM | HT-29 45.5 µM | HCT-116 > 100 µM | SF-539 > 100 µM | NCI-H522 21.6 µM | UO-31 49.1 µM | NCI-H226 56.1 µM | NCI-H460 32.1 µM | A549 24.9 µM | K562 41.2 µM | XF498 23.8 µM
68.5 µM: HCT-15

CCCCN(CCCC)c1c([N+](=O)[O-])c(=O)nc2ccccn12
39.4 µM: HCT-15
inactive: NCI-H23 30.8 µM | HOP-92 61.5 µM | SK-MEL-5 33.5 µM | SN12C 34.1 µM | HT-29 38.1 µM | HCT-116 38.9 µM | SF-539 31.4 µM | NCI-H522 17.6 µM | UO-31 45.6 µM | NCI-H226 75.3 µM | NCI-H460 24.8 µM | A549 33.7 µM | K562 37.2 µM | XF498 32.2 µM

Nc1ccn(CC(O)c2cc3ccccc3[nH]2)c(=O)n1 (configuration not stated)
inactive: NCI-H23 > 100 µM | HOP-92 > 100 µM | MDA-MB-231 > 100 µM | SK-MEL-5 > 100 µM | LOX IMVI > 100 µM | SN12C > 100 µM | HT-29 > 100 µM | HCT-116 > 100 µM | SF-539 > 100 µM | NCI-H522 > 100 µM | T47D > 100 µM | UO-31 > 100 µM | HCC 2998 > 100 µM | NCI-H226 > 100 µM | BT-549 > 100 µM | NCI-H460 > 100 µM | A549 > 100 µM | K562 > 100 µM
> 100 µM: HCT-15

CCCC1NC(C#N)(C#N)C(CCC)NC1(C#N)C#N (configuration not stated)
0.105 µM: HCT-15
inactive: NCI-H23 2.49 µM | MDA-MB-231 27.8 µM | SK-MEL-5 1.44 µM | HCC 2998 7.96 µM | NCI-H226 22.1 µM | BT-549 1.12 µM | NCI-H460 14 µM | A549 14.3 µM
active: HOP-92 0.488 µM | LOX IMVI 0.105 µM | SN12C 1.11 µM | HT-29 0.115 µM | HCT-116 < 0.0158 µM | SF-539 0.197 µM | NCI-H522 < 0.0105 µM | T47D 0.946 µM | UO-31 0.0787 µM | K562 0.0589 µM

CN1CC[N+](C)=C1c1ccccc1
inactive: NCI-H23 > 100 µM | HOP-92 > 100 µM | MDA-MB-231 > 100 µM | SK-MEL-5 > 100 µM | LOX IMVI > 100 µM | SN12C > 100 µM | HT-29 > 100 µM | HCT-116 > 100 µM | SF-539 > 100 µM | NCI-H522 > 100 µM | T47D > 100 µM | UO-31 > 100 µM | HCC 2998 > 100 µM | NCI-H226 > 100 µM | BT-549 > 100 µM | NCI-H460 > 100 µM | A549 > 100 µM | K562 > 100 µM
> 100 µM: HCT-15

N=C1OC(c2c[nH]c3ccc(OCc4ccccc4)cc23)C(O)=C1O (configuration not stated)
> 100 µM: HCT-15
inactive: NCI-H23 > 100 µM | HOP-92 > 100 µM | MDA-MB-231 74.5 µM | SK-MEL-5 > 100 µM | LOX IMVI > 100 µM | SN12C > 100 µM | HT-29 > 100 µM | HCT-116 > 100 µM | SF-539 > 100 µM | NCI-H522 > 100 µM | T47D > 100 µM | UO-31 > 100 µM | NCI-H226 > 100 µM | BT-549 > 100 µM | NCI-H460 > 100 µM | A549 > 100 µM | K562 > 100 µM
active: HCC 2998 0.951 µM
